# Values of other authors as cited in US20200170998A1, “UMBILICAL CORD BLOOD SERUM AND UMBILICAL CORD BLOOD PLASMA PREPARATION IN COMBINATION WITH A NONSTEROIDAL ANTI-INFLAMMATORY DRUG AND FREEZE-DRYING THE COMPOSITION” (CELLULA LLC, priority 2018, published 2020).
# Tested on: corneal epithelial cells
# Details: in-vitro; control a balanced salt solution
row,SMILES,toxicity on corneal epithelial cells
1,Nc1c(CC(=O)O)cccc1C(=O)c1ccc(Br)cc1 [bromfenac],less cellular damage and showed no difference with the control
2,O=C(O)Cc1ccccc1Nc1c(Cl)cccc1Cl [Diclofenac],significant cellular toxicity
3,CC(C(=O)O)c1ccc2c(c1)Cc1cccnc1O2 (stereo not shown) [pranoprofen],less cellular damage and showed no difference with the control
4,CC(=O)[C@@]1(O)CC[C@H]2[C@@H]3C[C@H](C)C4=CC(=O)C=C[C@]4(C)[C@@]3(F)[C@@H](O)C[C@@]21C [Flourometholone],most severe toxicity
